The record followed here is US9458463B2, “Method for treatment of diabetes by a small molecule inhibitor for GRK5” (MAX-PLANCK-GESELLSCHAFT ZUR FÖRDERUNG DER WISSENSCHAFTEN …, priority 2010, dated 2016).

pIC50: −log10 of the molar value.

The assay addresses T1, full length GRK5 (Homo sapiens, UniProt P34947).
T1 construct: 6/2 fold concentrated full length GRK5 (Millipore, #14-714) in reaction buffer; purchased Millipore 14-714
Nature of the assay: GRK5 kinase activity assay, ADP Glo Kinase Assay technology (Promega). The assay is classed as biochemical. The following applies: group II; for inhibition at 5 µM: final assay concentration 5 μM; for pIC50: ADP Glo Kinase Assay (Table 9-B). The method, then:
The maximal compound assay concentration was set to 100 μM, representing the compound assay concentration used in the primary screen.
Increasing concentrations of GRK5 are incubated together with 100 μM ATP in the absence and presence of 10 μM casein in a reaction buffer. Within this incubation non-phosphorylated casein is converted into phosphorylated casein and ATP is converted into ADP. Thereafter nonconverted ATP is digested into AMP by addition of the ADP-Glo™ Reagent. Subsequently the ADP that is produced by GRK5 activity is phosphorylated back to ATP by addition of Promega Kinase Detection Reagent. These ATP levels serve as measure for the GRK5 activity and are quantified by a luciferase/luciferin reaction.
For GRK5 kinase activity assay, the following protocol was used:
The reaction buffer used was composed of: 20 mM MES pH 6.0, 1 mM DTT, 10 mM MgCl2, 0.01% Tween20 and the reaction volume was 6 μL.
Firstly 4 μL 6/4 fold concentrated substrate and 6/4 fold concentrated ATP in 1 fold concentrated reaction buffer are added to each well of the assay plate. Subsequently 67 nL […] concentrated test compound in 100% DMSO are added to each well except to C− and C+ wells using pin tool. Then 67 nL 100% DMSO are pipetted to C− (no kinase, no compound) and C+ (no compound) wells using pin-tool and 2 μL reaction buffer are added to C− wells. […] After incubation for 120 min. at room temperature 6 μL ADP-Glo™ Reagent (ADP Glo™ Kinase Assay Kit: Promega, V9101) are added to each well to stop the kinase reaction and deplete the unconsumed ATP. After a second incubation for 40 min. at room temperature 12 μL of Kinase Detection Reagent are added to convert ADP to ATP and start luciferase/luciferin reaction for detection of ATP. […] Finally, after incubation for 40 min at room temperature the luminescence intensity was measured.
The activity of the compounds was classified according to IC50 for binding sites of Grk5 into the following ranges:
8800 Customer compounds were screened for their ability to inhibit the enzymatic activity of GRK5. Screening was performed using the ADP Glo™ Kinase Assay technology (Promega). The small molecular weight compounds were delivered at 10 mM stock concentration and were tested at a final assay concentration of 100 μM.
IC50 values were determined in triplicates at 12 concentrations with a dilution factor of three. Triplicates were measured on three different assay plates. The maximal compound assay concentration was set to 100 μM representing the compound assay concentration used in the primary screen. A larger maximal compound assay concentration could not be achieved since the maximal compound concentration on the compound plates was 10 mM (>1% DMSO concentration in the assay).
A general note: ADP-Glo turns the ADP formed in a reaction into a luminescent signal.

T1 sequence (P34947 whole entry): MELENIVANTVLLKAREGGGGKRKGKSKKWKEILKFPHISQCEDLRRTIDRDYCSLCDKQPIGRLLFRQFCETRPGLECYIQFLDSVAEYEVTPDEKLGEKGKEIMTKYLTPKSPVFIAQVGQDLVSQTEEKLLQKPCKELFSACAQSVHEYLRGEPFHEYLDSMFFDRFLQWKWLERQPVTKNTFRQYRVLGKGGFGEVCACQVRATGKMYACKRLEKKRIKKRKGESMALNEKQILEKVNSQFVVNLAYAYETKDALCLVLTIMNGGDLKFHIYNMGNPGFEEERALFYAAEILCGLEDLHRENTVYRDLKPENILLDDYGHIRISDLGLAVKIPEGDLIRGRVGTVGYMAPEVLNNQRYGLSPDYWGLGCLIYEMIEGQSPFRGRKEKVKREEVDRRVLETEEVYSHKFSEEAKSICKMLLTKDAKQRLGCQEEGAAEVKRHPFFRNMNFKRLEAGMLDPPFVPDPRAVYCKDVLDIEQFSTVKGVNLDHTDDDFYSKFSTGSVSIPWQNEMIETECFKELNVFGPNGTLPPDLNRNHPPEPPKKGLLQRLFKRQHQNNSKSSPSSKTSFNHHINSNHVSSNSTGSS

Take `Cc1[nH]c(/C=C2\C(=O)Nc3ccc(C(=O)O)cc32)c(C)c1C(=O)NC(C)C(=O)O` (stereo in doubt) [II.148, (3Z)-3-[4-(1-carboxy-(1R)-ethylcarbamoyl)-3,5-dimethyl-1H-pyrrol-2-ylmethylene]-2-oxo-2,3-dihydro-1H-indole-5-carboxylic acid]: testing at 5 µM gave an inhibition of 48%. With `Cc1[nH]c(/C=C2\C(=O)Nc3ccc(C(=O)O)cc32)c(C)c1C(=O)NC(Cc1ccccc1)C(=O)O` (stereo in doubt) [II.153, (3Z)-3-[4-((1R)-1-carboxy-2-phenyl-ethylcarbamoyl)-3,5-dimethyl-1H-pyrrol-2-ylmethylene]-2-oxo-2,3-dihydro-1H-indole-5-carboxylic acid], the inhibition at 5 µM stood at 56%. The molecule `Cc1[nH]c(/C=C2\C(=O)Nc3ccc(C(=O)O)cc32)c(C)c1C(=O)NCCN1CCCC1` [II.2] gave a pIC50 of 5.70 to 6.00. For the molecule `CC[C@H](NC(=O)c1ccc2c(c1)/C(=C/c1ccc(C(=O)N3CCN(C)CC3)cc1)C(=O)N2)c1ccccc1` [II.58, (3Z)-3-{4-[(4-methylpiperazin-1-yl)carbonyl]benzylidene}-2-oxo-N-[(1S)-1-phenylpropyl]indoline-5-carboxamide], the inhibition at 5 µM was 96%. Molecule `Cc1[nH]c(/C=C2\C(=O)Nc3ccc(C(=O)N[C@H](C)c4ccc(Cl)cc4)cc32)c(C)c1C(=O)N1CCCCC1` [II.66, (3Z)-N-[(1R)-1-(4-chlorophenyl)ethyl]-3-{[3,5-dimethyl-4-(piperidin-1-ylcarbonyl)-1H-pyrrol-2-yl]methylene}-2-oxoindoline-5-carboxamide] yielded an inhibition at 5 µM of 76%. On to `C[C@@H](NC(=O)c1ccc2c(c1)/C(=C/Nc1ccc(CN3CCCCC3)cc1)C(=O)N2)C1CCCCC1` [II.77, (3Z)-N-[(1R)-1-cyclohexylethyl]-2-oxo-3-({[4-(piperidin-1-ylmethyl)phenyl]amino}methylene)indoline-5-carboxamide], for which the inhibition at 5 µM worked out at 98%.

In the case of `CCC(NC(=O)c1ccc2c(c1)/C(=C/c1[nH]c(C)c(CCC(=O)O)c1C)C(=O)N2)c1cccc(Cl)c1` (stereo not drawn) [II.134, (3Z)-3-(5-{5-[1-(3-chloro-phenyl)-propylcarbamoyl]-2-oxo-1,2-dihydro-indol-3-ylidenemethyl}-2,4-dimethyl-1H-pyrrol-3-yl)-propionic acid], the pIC50 is 5.70 to 6.00. For `Cc1[nH]c(/C=C2\C(=O)Nc3ccc(C(=O)O)cc32)c(C)c1C(=O)N[C@H](C)c1ccccc1` [II.137, (3Z)-3-[3,5-dimethyl-4-((1R)-1-phenyl-ethylcarbamoyl)-1H-pyrrol-2-ylmethylene]-2-oxo-2,3-dihydro-1H-indole-5-carboxylic acid], the pIC50 is 6.00 to 7.00.

Take `CCOC(=O)c1c(C)[nH]c(/C=C2\C(=O)Nc3ccc(C(=O)N[C@@H](Cc4ccccc4)C(=O)OC)cc32)c1C` [II.157, (3Z)-5-[5-((1S)-1-methoxycarbonyl-2-phenyl-ethylcarbamoyl)-2-oxo-1,2-dihydro-indol-3-ylidenemethyl]-2,4-dimethyl-1H-pyrrole-3-carboxylic II. acid ester ethyl]: at 5 µM the inhibition was 74%.

`COC(=O)CC[C@H](NC(=O)c1c(C)[nH]c(/C=C2\C(=O)Nc3ccc(C(=O)N[C@@H](Cc4ccccc4)C(=O)OC)cc32)c1C)C(=O)OC` [II.167, (3Z)-2-({5-[5-((1S)-1-methoxycarbonyl-2-phenyl-ethylcarbamoyl)-2-oxo-1,2-dihydro-indol-3-ylidenemethyl]-2,4-dimethyl-1H-pyrrole-3-carbonyl}-amino)-(S)-pentanedioic acid dimethyl ester] displayed an inhibition at 5 µM of 81%.

The molecule `COc1ccc([C@@H](C)NC(=O)c2ccc3c(c2)/C(=C/c2[nH]c(C)cc2C)C(=O)N3)cc1` [II.170, (3Z)-3-(3,5-dimethyl-1H-pyrrol-2-ylmethylene)-2-oxo-2,3-dihydro-1H-indole-5-carboxylic acid [(1R)-1-(4-methoxy-phenyl)-ethyl]-amide] gave an inhibition at 5 µM of 58%.

`CC[C@@H](NC(=O)c1ccc2c(c1)/C(=C/c1[nH]c(C)c(C(=O)N3CCN(C4CCN(C)CC4)CC3)c1C)C(=O)N2)c1ccccc1` [II.181, (3Z)-3-{3,5-dimethyl-4-[4-(1-methyl-piperidin-4-yl)-piperazine-1-carbonyyl]-1H-pyrrol-2-ylmethylene}-2-oxo-2,3-dihydro-1H-indole-5-carboxylic acid ((1R)-1-phenyl-propyl)-amide] yielded an inhibition at 5 µM of 49%.

`Cc1[nH]c(/C=C2\C(=O)Nc3ccc(C(=O)NCc4c(F)ccc(Cl)c4F)cc32)c(C)c1C(=O)N1CCC[C@H]1CN1CCCC1` [II.187, (3Z)-3-[3,5-dimethyl-4-((2S)-2-pyrrolidin-1-ylmethyl-pyrrolidine-1-carbonyl)-1H-pyrrol-2-ylmethylene]-2-oxo-2,3-dihydro-1H-indole-5-carboxylic acid 3-chloro-2,6-difluoro-benzylamide] returned an inhibition at 5 µM of 76%. The molecule `Cc1[nH]c(/C=C2\C(=O)Nc3ccc(C(=O)NCc4c(F)cccc4F)cc32)c(C)c1C(=O)N1CCC[C@H]1CN1CCCC1` [II.189, (3Z)-3-[3,5-dimethyl-4-((2S)-2-pyrrolidin-1-ylmethyl-pyrrolidine-1-carbonyl)-1H-pyrrol-2-ylmethylene]-2-oxo-2,3-dihydro-1H-indole-5-carboxylic acid 2,6-difluoro-benzylamide] gave an inhibition at 5 µM of 98%. Still for that read-out and setting: as for `Cc1[nH]c(/C=C2\C(=O)Nc3ccc(C(=O)NCc4c(F)cccc4F)cc32)c(C)c1C(=O)N1CC[C@H](N(C)C)C1` [II.190, (3Z)-3-[4-((3S)-3-dimethylamino-pyrrolidine-1-carbonyl)-3,5-dimethyl-1H-pyrrol-2-ylmethylene]-2-oxo-2,3-dihydro-1H-indole-5-carboxylic acid 2,6-difluoro-benzylamide], the figure is 61%; as for `Cc1[nH]c(/C=C2\C(=O)Nc3ccc(C(=O)NCc4c(F)cccc4F)cc32)c(C)c1C(=O)N1CCC[C@@H]1CN1CCCC1` [II.191, (3Z)-3-[3,5-dimethyl-4-((2R)-2-pyrrolidin-1-ylmethyl-pyrrolidine-1-carbonyl)-1H-pyrrol-2-ylmethylene]-2-oxo-2,3-dihydro-1H-indole-5-carboxylic acid 2,6-difluoro-benzylamide], 66%.

`Cc1[nH]c(/C=C2\C(=O)Nc3ccc(C(=O)NCc4c(F)cccc4F)cc32)c(C)c1C(=O)NCCN1CCCCC1` [II.192, (3Z)-3-[3,5-dimethyl-4-(2-piperidin-1-yl-ethylcarbamoyl)-1H-pyrrol-2-ylmethylene]-2-oxo-2,3-dihydro-1H-indole-5-carboxylic acid 2,6-difluoro-benzylamide] registered an inhibition at 5 µM of 86%. `COc1ccc([C@@H](C)NC(=O)c2ccc3c(c2)/C(=C/c2c[nH]c4ccccc24)C(=O)N3)cc1` [II.193, (3Z)-3-(1H-indol-3-ylmethylene)-2-oxo-2,3-dihydro-1H-indole-5-carboxylic acid [(1R)-1-(4-methoxy-phenyl)-ethyl]-amide] had an inhibition at 5 µM of 88%.

A word on the inhibition: it is the relative decrease from the control value, in per cent. High values mean strong suppression, low ones little suppression. As a reminder, the pIC50 is the negative decadic logarithm of the IC50, by convention in mol/L. Read a low pIC50 as a high IC50.
